Experiments:
Assay type in all cases: cell-based
[1] = tested on: HT-29 (monolayer culture of a human colon carcinoma); experiment: In vitro antitumor activity, HT-29 cell growth (Crystal Violet); details: HT-29 cells, three days of incubation at 37° C., Crystal Violet staining
Description: (§1) The antitumor activities of IB-97224 and IB-97225 have been determined in vitro in cell cultures of mouse leukemia P-388D1, human lung carcinoma A-549, human colon carcinoma HT-29 and human melanoma SK-MEL-28. The procedure was carried out using the methodology described by Bergeron, et al. (1984), and by Schroeder, et al. (1981).
(§2) Biological activity: The antitumor cells employed have been P-388D1 (suspension culture of a lymphoid neoplasm from DBA/2 mouse), A-549 (monolayer culture of a human macrocytic lung carcinoma), HT-29 (monolayer culture of a human colon carcinoma), and SK-MEL-28 (monolayer culture of a human melanoma). P-388D1 cells were seeded into 16 mm wells at 1×10^4 cells per well in 1 ml aliquots of MEM 5FCS containing the indicated concentration of drug. A separate set of cultures without drug was seeded as control of growth to ensure that cells remained in exponential phase of growth. All determinations were carried out duplicated. After three days of incubation at 37° C. in 10% CO2 atmosphere with 98% humidity, the IC50 was calculated by comparing the growth in wells with drug with the growth in control wells without the drug. […] The IC50 was calculated by comparing the growth in wells with drug with the growth in control wells without the drug.

[2] = tested on: A-549 (monolayer culture of a human macrocytic lung carcinoma); experiment: In vitro antitumor activity, A-549 cell growth (Crystal Violet); details: A-549 cells, three days of incubation at 37° C., Crystal Violet staining
Description: as §1, §2

[3] = tested on: P-388D1 (suspension culture of a lymphoid neoplasm from DBA/2 mouse); experiment: In vitro antitumor activity, P-388D1 cell growth; details: P388D1 cells, three days of incubation at 37° C., growth vs control wells without drug
Description: as §1, §2

[4] = tested on: SK-MEL-28 (monolayer culture of a human melanoma); experiment: In vitro antitumor activity, SK-MEL-28 cell growth (Crystal Violet); details: SK-MEL-28 cells, three days of incubation at 37° C., Crystal Violet staining
Description: as §1, §2

Row | SMILES | IC50 [1] | IC50 [2] | IC50 [3] | IC50 [4]
1 | CO[C@H]1[C@@H](N(C)C)[C@H](O)C2OC1(C)n1c3ccccc3c3c4c(c5c6ccccc6n2c5c31)C(=O)NC4 (some centres unmarked) [IB-97224, 4′N-methyl-5′-hydroxystaurosporine] | 4 nM | 2 nM | 40 nM | 4 nM
2 | CN[C@H]1[C@H](O)[C@@H]2O[C@](C)([C@H]1OC)n1c3ccccc3c3c4c(c5c6ccccc6n2c5c31)C(=O)NC4 [IB-97225, 5′-hydroxystaurosporine] | 4 nM | 2 nM | 20 nM | 2 nM

— US6852715B1, “Indolocarbazole alkaloids from a marine actinomycete” (Instituto Biomar S.A., priority 1909, dated 2005)
